According to publication PMC4971072, “Chemically Homogenous Compounds with Antagonistic Properties at All α1-Adrenoceptor Subtypes but not β1-Adrenoceptor Attenuate Adrenaline-Induced Arrhythmia in Rats” (Frontiers in Pharmacology, 2016):
Counter-ions that a name gives are not always drawn. Marks after values point to notes of the source that are not given here. Blank lines part the entries; values can stand above or below the compound they belong to.

Experiments:
α1-adrenoceptor = α1-adrenoceptor radioligand binding assay ([3H]-prazosin, rat cerebral cortex); settings: read-out: Adrenergic receptors Ki α1
Description: (§1) The α1- and β1-adrenoceptor radioligand binding assay was performed on rat cerebral cortex. […] The cell pellet was resuspended in the Tris–HCl buffer and centrifuged again. Radioligand binding assays were performed in plates (MultiScreen/Millipore). […] The incubation was terminated by rapid filtration through glass fiber filters (Whatman GF/C) using a vacuum manifold (Millipore). The filters were then washed twice with the assay buffer and placed in scintillation vials with a liquid scintillation cocktail. […] All the assays were made in duplicate and the inhibitory constants (Ki) were estimated.
(§2) LO–labeled ligand concentration, KD–dissociation constant of labeled ligand

β1-adrenergic receptor = target: T1, β1-adrenergic receptor (Rattus norvegicus, UniProt P18090); assay: β1-adrenoceptor radioligand binding assay ([3H]-CGP-12177, rat cerebral cortex); settings: read-out: Adrenergic receptors Ki β1
T1 construct: The brains were homogenized in 20 volumes of an ice-cold 50 mM Tris-HCl buffer; from tissue; host or cells: rat cerebral cortex membranes
Description: as §1, §2

normal ECG in rats = assay: The effect on normal electrocardiogram in rats; assay type: in vivo, rat; settings: anesthetized rats; for influence on ECG parameters (PQ interval, QRS complex, QTc interval) / Beats/min (ECG) / PQ (ECG) / QRS (ECG) / QT (ECG) / QTc (ECG, Bazett): i.p. at ED84; for reduction of heart rate: i.p. at ED84, over the period of significant effect vs. initial values
Description: The experiment was carried out to exclude the influence of tested compounds on normal ECG. […] The influence on QRS complex, PQ interval, heart rate (RR), and QTc interval was determined.

[1] = test system: adrenaline-induced arrhythmia in rats; assay: Prophylactic antiarrhythmic activity in adrenaline-induced arrhythmia; assay type: in vivo, rat; settings: for ED50: Rattus norvegicus, read-out: ED50 (confidence limits)
Description: The studied compounds were administered i.p. 45 min before the injection of adrenaline, calcium chloride, or barium chloride. The electrocardiogram (ECG) was recorded during the first 2 min as well as in the 5th, 10th, and 15th min after the arrhythmogen injection. […]

[2] = test system: lipid peroxidation in rat brain homogenate; assay: Lipid peroxidation in rat brain homogenate (TBARS), antioxidant effect; assay type: biochemical; settings: 10^−3 M; for % reduction of absorbance (% antioxidant activity) / Absorbance: TBARs at 532 nm
[3] = dose 0.1 mg/kg i.p. 45 min before adrenaline 20 μg/kg i.v.
[4] = dose 0.2 mg/kg i.p. 45 min before adrenaline 20 μg/kg i.v.
[5] = dose 0.3 mg/kg i.p. 45 min before adrenaline 20 μg/kg i.v.

T1 sequence (P18090 whole entry): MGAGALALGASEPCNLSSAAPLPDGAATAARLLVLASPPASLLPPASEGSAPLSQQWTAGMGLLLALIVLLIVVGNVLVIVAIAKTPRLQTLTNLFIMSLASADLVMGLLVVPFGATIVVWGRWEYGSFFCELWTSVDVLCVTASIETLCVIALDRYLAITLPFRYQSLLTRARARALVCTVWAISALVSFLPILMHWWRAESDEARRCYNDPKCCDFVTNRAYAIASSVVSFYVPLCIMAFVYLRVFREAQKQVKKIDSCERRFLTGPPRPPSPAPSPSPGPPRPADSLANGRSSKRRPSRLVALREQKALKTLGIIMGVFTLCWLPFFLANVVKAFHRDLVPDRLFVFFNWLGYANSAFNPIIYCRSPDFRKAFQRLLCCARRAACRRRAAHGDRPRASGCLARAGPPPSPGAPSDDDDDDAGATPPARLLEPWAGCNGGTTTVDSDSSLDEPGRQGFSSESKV

Ki (α1-adrenoceptor): 5.2 nM
Ki (β1-adrenergic receptor): > 10000 nM
Compound: COc1ccccc1N1CCN(CCCOc2c(C)cc(C)cc2C)CC1 [HBK-18, 1N-[3-(2,4,6-trimethylphenoxy)propyl]-4N-(2-methoxyphenyl)piperazine hydrochloride]
influence on ECG parameters (PQ interval, QRS complex, QTc interval) (normal ECG in rats): did not affect PQ interval, QRS complex or QTc interval
reduction of heart rate (normal ECG in rats): 13−23%
Beats/min (ECG) (normal ECG in rats; 0 min (initial values)): 328.0 ± 7.4 Beats/min
PQ (ECG) (normal ECG in rats; 0 min (initial values)): 61.3 ± 4.6 ms
QRS (ECG) (normal ECG in rats; 0 min (initial values)): 28.1 ± 3.1 ms
QT (ECG) (normal ECG in rats; 0 min (initial values)): 73.9 ± 6.2 ms
QTc (ECG, Bazett) (normal ECG in rats; 0 min (initial values)): 172.4 ± 13.5 ms
Beats/min (ECG) (normal ECG in rats; 5 min): 306.9 ± 9.0 Beats/min
PQ (ECG) (normal ECG in rats; 5 min): 61.5 ± 6.3 ms
QRS (ECG) (normal ECG in rats; 5 min): 30.4 ± 3.2 ms
QT (ECG) (normal ECG in rats; 5 min): 77.0 ± 7.0 ms
QTc (ECG, Bazett) (normal ECG in rats; 5 min): 174.2 ± 16.3 ms
Beats/min (ECG) (normal ECG in rats; 10 min): 298.7 ± 8.9 Beats/min
PQ (ECG) (normal ECG in rats; 10 min): 57.4 ± 4.2 ms
QRS (ECG) (normal ECG in rats; 10 min): 30.8 ± 3.6 ms
QT (ECG) (normal ECG in rats; 10 min): 77.7 ± 4.9 ms
QTc (ECG, Bazett) (normal ECG in rats; 10 min): 173.4 ± 11.7 ms
Beats/min (ECG) (normal ECG in rats; 15 min): 284.7 ± 7.6^a Beats/min
PQ (ECG) (normal ECG in rats; 15 min): 55.8 ± 1.6 ms
QRS (ECG) (normal ECG in rats; 15 min): 27.0 ± 2.9 ms
QT (ECG) (normal ECG in rats; 15 min): 76.1 ± 5.8 ms
QTc (ECG, Bazett) (normal ECG in rats; 15 min): 166.4 ± 14.5 ms
Beats/min (ECG) (normal ECG in rats; 20 min): 273.9 ± 8.0^b Beats/min
PQ (ECG) (normal ECG in rats; 20 min): 51.9 ± 3.8 ms
QRS (ECG) (normal ECG in rats; 20 min): 29.1 ± 2.7 ms
QT (ECG) (normal ECG in rats; 20 min): 77.9 ± 4.2 ms
QTc (ECG, Bazett) (normal ECG in rats; 20 min): 166.9 ± 11.1 ms
Beats/min (ECG) (normal ECG in rats; 30 min): 267.4 ± 17.5^c Beats/min
PQ (ECG) (normal ECG in rats; 30 min): 56.9 ± 3.5 ms
QRS (ECG) (normal ECG in rats; 30 min): 28.5 ± 2.8 ms
QT (ECG) (normal ECG in rats; 30 min): 75.3 ± 3.2 ms
QTc (ECG, Bazett) (normal ECG in rats; 30 min): 159.0 ± 9.7 ms
Beats/min (ECG) (normal ECG in rats; 40 min): 260.3 ± 22.8^c Beats/min
PQ (ECG) (normal ECG in rats; 40 min): 57.4 ± 3.1 ms
QRS (ECG) (normal ECG in rats; 40 min): 28.6 ± 2.8 ms
QT (ECG) (normal ECG in rats; 40 min): 76.9 ± 4.9 ms
QTc (ECG, Bazett) (normal ECG in rats; 40 min): 160.4 ± 14.4 ms
Beats/min (ECG) (normal ECG in rats; 50 min): 258.9 ± 25.4^c Beats/min
PQ (ECG) (normal ECG in rats; 50 min): 59.0 ± 3.8 ms
QRS (ECG) (normal ECG in rats; 50 min): 27.6 ± 3.0 ms
QT (ECG) (normal ECG in rats; 50 min): 76.0 ± 2.9 ms
QTc (ECG, Bazett) (normal ECG in rats; 50 min): 157.2 ± 9.9 ms
Beats/min (ECG) (normal ECG in rats; 60 min): 252.3 ± 25.1^c Beats/min
PQ (ECG) (normal ECG in rats; 60 min): 59.6 ± 4.7 ms
QRS (ECG) (normal ECG in rats; 60 min): 30.9 ± 3.8 ms
QT (ECG) (normal ECG in rats; 60 min): 76.7 ± 3.5 ms
QTc (ECG, Bazett) (normal ECG in rats; 60 min): 157.1 ± 12.0 ms
ED50 [1]: 0.18 mg/kg
Bigeminy (%) [1, 3]: 50.0%
Blocks (%) [1, 3]: 66.7%
Bradycardia (%) [1, 3]: 66.7%
Extrasystoles (%) [1, 3]: 83.3%
Bigeminy (%) [1, 4]: 16.7%
Blocks (%) [1, 4]: 33.0%
Bradycardia (%) [1, 4]: 50.0%
Extrasystoles (%) [1, 4]: 50.0%
Blocks (%) [1, 5]: 16.3%
Bradycardia (%) [1, 5]: 16.3%
Extrasystoles (%) [1, 5]: 16.7%
inhibition of lipid peroxidation (in words) [2]: inhibited lipid peroxidation
% reduction of absorbance (% antioxidant activity) [2]: 13.41%
Absorbance [2]: 0.781 ± 0.004

Ki (α1-adrenoceptor): 5 nM
Ki (β1-adrenergic receptor): > 10000 nM
Compound: COc1ccccc1N1CCN(CCCOc2cc(C)ccc2Cl)CC1 [HBK-16, 1N-[3-(2-chloro-5-methylphenoxy)propyl]-4N-(2-methoxyphenyl)piperazine hydrochloride]
influence on ECG parameters (PQ interval, QRS complex, QTc interval) (normal ECG in rats): did not influence PQ interval, QRS complex or QTc interval
reduction of heart rate (normal ECG in rats): 11−13%
Beats/min (ECG) (normal ECG in rats; 0 min (initial values)): 329.6 ± 9.8 Beats/min
PQ (ECG) (normal ECG in rats; 0 min (initial values)): 64.4 ± 1.1 ms
QRS (ECG) (normal ECG in rats; 0 min (initial values)): 21.7 ± 2.2 ms
QT (ECG) (normal ECG in rats; 0 min (initial values)): 51.4 ± 3.5 ms
QTc (ECG, Bazett) (normal ECG in rats; 0 min (initial values)): 120.5 ± 8.7 ms
Beats/min (ECG) (normal ECG in rats; 5 min): 331.4 ± 12.5 Beats/min
PQ (ECG) (normal ECG in rats; 5 min): 63.7 ± 1.1 ms
QRS (ECG) (normal ECG in rats; 5 min): 21.7 ± 2.2 ms
QT (ECG) (normal ECG in rats; 5 min): 51.2 ± 3.5 ms
QTc (ECG, Bazett) (normal ECG in rats; 5 min): 120.7 ± 9.7 ms
Beats/min (ECG) (normal ECG in rats; 10 min): 330.1 ± 12.4 Beats/min
PQ (ECG) (normal ECG in rats; 10 min): 63.6 ± 0.9 ms
QRS (ECG) (normal ECG in rats; 10 min): 21.7 ± 2.2 ms
QT (ECG) (normal ECG in rats; 10 min): 51.2 ± 3.3 ms
QTc (ECG, Bazett) (normal ECG in rats; 10 min): 120.2 ± 8.8 ms
Beats/min (ECG) (normal ECG in rats; 15 min): 319.4 ± 10.3 Beats/min
PQ (ECG) (normal ECG in rats; 15 min): 63.9 ± 1.1 ms
QRS (ECG) (normal ECG in rats; 15 min): 21.7 ± 2.2 ms
QT (ECG) (normal ECG in rats; 15 min): 50.1 ± 3.6 ms
QTc (ECG, Bazett) (normal ECG in rats; 15 min): 115.8 ± 9.6 ms
Beats/min (ECG) (normal ECG in rats; 20 min): 310.6 ± 9.8 Beats/min
PQ (ECG) (normal ECG in rats; 20 min): 65.1 ± 1.2 ms
QRS (ECG) (normal ECG in rats; 20 min): 21.7 ± 2.2 ms
QT (ECG) (normal ECG in rats; 20 min): 51.4 ± 3.1 ms
QTc (ECG, Bazett) (normal ECG in rats; 20 min): 117.3 ± 8.7 ms
Beats/min (ECG) (normal ECG in rats; 30 min): 302.8 ± 11.0 Beats/min
PQ (ECG) (normal ECG in rats; 30 min): 64.4 ± 1.1 ms
QRS (ECG) (normal ECG in rats; 30 min): 21.7 ± 2.2 ms
QT (ECG) (normal ECG in rats; 30 min): 52.7 ± 3.7 ms
QTc (ECG, Bazett) (normal ECG in rats; 30 min): 119.0 ± 10.3 ms
Beats/min (ECG) (normal ECG in rats; 40 min): 294.1 ± 12.2^a Beats/min
PQ (ECG) (normal ECG in rats; 40 min): 65.9 ± 0.8 ms
QRS (ECG) (normal ECG in rats; 40 min): 21.7 ± 2.2 ms
QT (ECG) (normal ECG in rats; 40 min): 53.5 ± 2.8 ms
QTc (ECG, Bazett) (normal ECG in rats; 40 min): 118.9 ± 8.4 ms
Beats/min (ECG) (normal ECG in rats; 50 min): 291.4 ± 13.0^b Beats/min
PQ (ECG) (normal ECG in rats; 50 min): 67.3 ± 1.6 ms
QRS (ECG) (normal ECG in rats; 50 min): 22.0 ± 2.1 ms
QT (ECG) (normal ECG in rats; 50 min): 54.7 ± 2.8 ms
QTc (ECG, Bazett) (normal ECG in rats; 50 min): 121.1 ± 8.7 ms
Beats/min (ECG) (normal ECG in rats; 60 min): 288.0 ± 13.8^b Beats/min
PQ (ECG) (normal ECG in rats; 60 min): 68.2 ± 0.9 ms
QRS (ECG) (normal ECG in rats; 60 min): 22.3 ± 2.0 ms
QT (ECG) (normal ECG in rats; 60 min): 55.5 ± 2.4 ms
QTc (ECG, Bazett) (normal ECG in rats; 60 min): 122.0 ± 7.7 ms
ED50 [1]: 0.2 mg/kg
Bigeminy (%) [1, 3]: 33.3%
Blocks (%) [1, 3]: 50.0%
Bradycardia (%) [1, 3]: 66.7%
Extrasystoles (%) [1, 3]: 83.3%
Bigeminy (%) [1, 4]: 16.7%
Blocks (%) [1, 4]: 33.3%
Bradycardia (%) [1, 4]: 50.0%
Extrasystoles (%) [1, 4]: 33.3%
Blocks (%) [1, 5]: 16.7%
Bradycardia (%) [1, 5]: 33.3%
Extrasystoles (%) [1, 5]: 16.7%
inhibition of lipid peroxidation (in words) [2]: inhibited lipid peroxidation
% reduction of absorbance (% antioxidant activity) [2]: 16.63%
Absorbance [2]: 0.752 ± 0.007
